The values that follow come from patent US11065266B2, “Method of treating melanoma using an inhibitor of an atypical protein kinase C” (UNIVERSITY OF SOUTH FLORIDA, priority 2016, dated 2021).

Assay [1] deals with SK-MEL-2 cells. Kind of assay: Growth inhibition assay (cell counts over 72 h). Conditions: for inhibition at 0.05 µM / inhibition at 0.1 µM / inhibition at 0.2 µM / inhibition at 0.5 µM / inhibition at 1 µM: Homo sapiens; for inhibition at 0.05 µM: 50 nM; for inhibition at 0.1 µM: 100 nM; for inhibition at 0.2 µM: 200 nM; for inhibition at 0.5 µM: 500 nM. It counts as cell-based, human. Here is the method: For the growth inhibition assays, the PCS-200-013 cells or SK-MEL-2 cells were seeded at 40,000 cells/well into 6-well-plates and treated with the respective inhibitor. Cells in each well were counted after 24 h from the time of treating with the inhibitor at the desired concentration. Each inhibitor had triplicate plates which were counted at 24th, 48th and 72nd hours after initiating the inhibitor treatment. Inhibitors were added after 24 h of seeding point. The inhibitor concentrations were none (control), 50 nM, 100 nM, 200 nM, 500 nM and 1 μM. The cells were counted using a hemocytometer. The same procedure was followed for inhibitors ICA-1, ACPD, 3,4-diamino-2,7-naphthalenedisulfonic acid DNDA and 8-hydroxy-1, 3,6-naphthalenetrisulfonic acid (ζ-Stat).
Cell growth of malignant melanoma cells was reduced by applying PKC-ι and PKC-ζ inhibitors (FIGS. 3A-3D and 4A-4B). Both PKC-ι, and PKC-ζ heavily contributed to the migration of metastasized melanoma cells and migration can be suppressed using ICA-1 and ACPD. For example, Tables 1-2 provide a summary of the percentage inhibition of growth of SK-MEL-2 cells (Table 1 for ICA-1 and Table 2 for ACPD) as a function of time over 72 h period. Both ACPD and ICA-1 have 40% effectiveness on cell proliferation inhibition at the highest concentration used. Inhibition is increased upon increasing the concentration.

Assay [2] relates to MeWo cells. Nature of the assay: WST-1 assay for cell viability and cytotoxicity. The format is cell-based, human. Conditions: treated at IC50, 3 days. On the procedure:
(§1) Approximately 4×10^3 cells (PCS-200-013, SK-MEL-2 and MeWo) were cultured in a 96 well plate. […] This IC50 was obtained based on the cell viability counts in the previous experiments. Additional doses of sterile water or inhibitor were supplied every 24 h during 3 day incubation period. At the end of 3 day treatment, media were removed and fresh media (100 μL) were added with 4-[3-(4-iodophenyl)-2-(4-nitropheny))-2H-5-tetrazolio]-1,3-benzene disulfonate (WST-1) reagent (10 μL) to each well. The absorbance was measured at 450 nm for every 0.5 hour up to 3 hours using the Synergy HT microplate reader from Biotek (Winooski, Vt.).
WST-1 assay was performed to determine the in-vitro cytotoxicity of ACPD and DNDA on normal and malignant cell lines. Measured absorbance at 450 nm is directly proportional to the number of cells present. Cells produce a water soluble formazan with WST-1 as a result of their mitochondrial dehydrogenase activity. WST-1 assay is preferred over 3-(4,S-Dimethyl-2-thiazolyl)-2, 5-diphenyl-2Htetrazolium bromide (MTT) test since MTT needs to add acidic isopropanol to dissolve formazan which gives an additional toxicity to cells.

Assay [3] deals with T1, PKC-ι (Homo sapiens, UniProt P41743).
T1 sequence (P41743 1-596): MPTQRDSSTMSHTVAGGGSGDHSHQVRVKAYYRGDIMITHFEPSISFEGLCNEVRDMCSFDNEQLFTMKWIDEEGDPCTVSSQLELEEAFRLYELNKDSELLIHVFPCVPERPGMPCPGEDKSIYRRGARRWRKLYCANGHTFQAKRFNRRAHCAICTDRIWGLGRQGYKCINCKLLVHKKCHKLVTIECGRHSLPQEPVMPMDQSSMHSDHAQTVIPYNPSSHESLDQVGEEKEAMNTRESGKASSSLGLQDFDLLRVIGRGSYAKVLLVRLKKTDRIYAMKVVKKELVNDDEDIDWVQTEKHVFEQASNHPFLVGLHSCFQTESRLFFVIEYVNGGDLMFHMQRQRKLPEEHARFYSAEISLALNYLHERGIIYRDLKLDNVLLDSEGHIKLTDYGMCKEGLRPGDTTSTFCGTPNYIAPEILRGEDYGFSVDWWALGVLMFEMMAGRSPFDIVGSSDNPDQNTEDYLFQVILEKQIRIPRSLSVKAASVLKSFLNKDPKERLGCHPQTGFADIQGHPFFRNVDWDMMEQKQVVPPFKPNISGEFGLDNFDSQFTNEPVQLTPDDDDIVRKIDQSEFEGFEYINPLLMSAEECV
Details: dose or concentration left out as unconfirmed. Particulars: cited from earlier work.

For assay [4], the system named is other PKC isoforms. Conditions: cited from earlier work.
The test system of assay [5] is MAPK, Akt2, FGFR 1/2/3/4, mTOR, GSK3B, IRAK1/4, JAK 1/2, MEK1, ERK1/2, JNK 1/2, PKA, Src, ROCK2 and PI3K. Conditions: cited from earlier work.
Assay [6] relates to malignant melanoma cells (SK-MEL-2 and MeWo). Kind of assay: WST-1 assay, ζ-Stat. The format is cell-based, human. Particulars: 2.5 μM. Here is the method: as §1
Cell proliferation was measured using WST-1 assay for SK-MEL-2 (FIG. 16A) and MeWo (FIG. 16b). Absorbance at 450 nm due to production of water soluble formazan was measured as a function of time and the absorbance is directly proportional to the number of cells. The experimental concentration for ζ-Stat was 2.5 μM. N=3 experiments were performed for each cell line and mean±SD are plotted.

In assay [7] the test system is malignant melanoma cell lines (SK-MEL-2 and MeWo). Nature of the assay: Western blot of ζ-Stat treated samples. It counts as cell-based, human. Here is the method: The change of levels of phosphorylated PKC-ι, total PKC-ι (FIG. 18A) and change of levels of phosphorylated PKC-ζ, total PKC-ζ (FIG. 18B) are shown for the ζ-Stat treated (2.5 μM) samples of malignant melanoma cell lines (SK-MEL-2 and MeWo) after the end of 3rd day of treatments. β-actin was used as the internal loading control in each Western blot. Whole cell lysate of 40 μg was separated on 7.5% SDS-PAGE and the Western blots of above proteins were obtained. N=3 experiments were performed in each case.

As to `CC(=O)C1=C(O)CCC1=O` [ACPD, 2-acetyl-1,3-cyclopentanedione], in assay [1] (SK-MEL-2, 24 h, Day 1), the inhibition at 0.05 µM worked out at 1%, 0.1 µM produced 11% inhibition, at 0.2 µM the inhibition was 19% and the inhibition at 0.5 µM was 26%. This compound returned an inhibition at 1 µM in assay [1] (SK-MEL-2, 24 h, Day 1) of 36%. Besides, in assay [1] (SK-MEL-2, 48 h, Day 2), testing at 0.05 µM gave an inhibition of 4%, at 0.1 µM the inhibition was 10%, the inhibition at 0.2 µM was 23% and the inhibition at 0.5 µM amounted to 30%. This compound displayed an inhibition at 1 µM in assay [1] (SK-MEL-2, 48 h, Day 2) of 35%. In assay [1] (SK-MEL-2, 72 h, Day 3), this compound showed an inhibition at 0.05 µM of 5%, an inhibition at 0.1 µM of 9%, an inhibition at 0.2 µM of 20% and an inhibition at 0.5 µM of 26%. This compound also gave an inhibition at 1 µM in assay [1] (SK-MEL-2, 72 h, Day 3) of 37%. Moreover, in assay [1] (at the highest concentration used), the “effectiveness on cell proliferation inhibition” value is on record as 40%. The “WST-1 absorbance at 450 nm, effect” value in assay [2] is recorded as “did not show a significant effect”. In addition, the “inhibition of PKC-ι” value in assay [3] is given as “approximately 40%”. Besides, in assay [4], the “effect on other PKC isoforms” value is given as “without affecting”. Besides, in assay [5], the “inhibition of other kinases” value is listed as “does not inhibit”.

As for `O=S(=O)(O)c1cc(O)c2c(S(=O)(=O)O)cc(S(=O)(=O)O)cc2c1` [ζ-Stat, 8-hydroxy-1,3,6-naphthalenetrisulfonic acid], the “toxicity according to the WST-1 assay” value in assay [6] is listed as “did not show toxicity”. In addition, the “apoptosis of malignant melanoma cells” value in assay [7] is listed as “induces the apoptosis”. In assay [7] (2.5 μM, end of 3rd day), the “phosphorylated PKC-ι level” value was “did not change significantly”, the “reduction of pPKC-ζ level” value stood at 37%, the “reduction of total PKC-ζ level” value is 42% and the “total PKC-ι protein level” value is “did not change significantly”.
